Legend:
Type in all cases: functional
Pseudomonas aeruginosa [1] = assay: Antibacterial activity against Pseudomonas aeruginosa assessed as inhibition zone at 25 ug/ml by diffusion method; conditions: read-out: IZ
Escherichia coli [2] = assay: Antibacterial activity against Escherichia coli assessed as inhibition zone at 75 ug/ml by diffusion method; conditions: read-out: IZ
Escherichia coli [3] = assay: Antibacterial activity against Escherichia coli assessed as inhibition zone at 50 ug/ml by diffusion method; conditions: read-out: IZ
Escherichia coli [4] = assay: Antibacterial activity against Escherichia coli assessed as inhibition zone at 25 ug/ml by diffusion method; conditions: read-out: IZ
Staphylococcus aureus [5] = assay: Antibacterial activity against Staphylococcus aureus assessed as inhibition zone at 75 ug/ml by diffusion method; conditions: read-out: IZ
Staphylococcus aureus [6] = assay: Antibacterial activity against Staphylococcus aureus assessed as inhibition zone at 50 ug/ml by diffusion method; conditions: read-out: IZ
Staphylococcus aureus [7] = assay: Antibacterial activity against Staphylococcus aureus assessed as inhibition zone at 25 ug/ml by diffusion method; conditions: read-out: IZ
Pseudomonas aeruginosa [8] = assay: Antibacterial activity against Pseudomonas aeruginosa assessed as inhibition zone at 75 ug/ml by diffusion method; conditions: read-out: IZ
[9] = test system: Mycobacterium tuberculosis; assay: Antimycobacterial activity against Mycobacterium tuberculosis H37Rv assessed as bacterial growth inhibition by microplate Alamar blue assay
Pseudomonas aeruginosa [10] = assay: Antibacterial activity against Pseudomonas aeruginosa assessed as inhibition zone at 50 ug/ml by diffusion method; conditions: read-out: IZ

Row | Structure (SMILES) | zone of inhibition at 25 µg/mL (Pseudomonas aeruginosa [1]) [mm] | zone of inhibition at 75 µg/mL (Escherichia coli [2]) [mm] | zone of inhibition at 50 µg/mL (Escherichia coli [3]) [mm] | zone of inhibition at 25 µg/mL (Escherichia coli [4]) [mm] | zone of inhibition at 75 µg/mL (Staphylococcus aureus [5]) [mm] | zone of inhibition at 50 µg/mL (Staphylococcus aureus [6]) [mm] | zone of inhibition at 25 µg/mL (Staphylococcus aureus [7]) [mm] | zone of inhibition at 75 µg/mL (Pseudomonas aeruginosa [8]) [mm] | MIC [9] [µM] | zone of inhibition at 50 µg/mL (Pseudomonas aeruginosa [10]) [mm]
1 | O=C(CCc1c[nH]c2ccccc12)N1CCN(S(=O)(=O)c2ccc(F)cc2)CC1 | 13 | 17 | 15 | 13 | 20 | 15 | 13 | 18 | > 120 | 15
2 | Cc1ccc(S(=O)(=O)N2CCN(C(=O)CCc3c[nH]c4ccccc34)CC2)cc1 | 10 | 18 | 15 | 13 | 15 | 13 | 10 | 18 | > 120 | 15
3 | Cc1ccc(C(=O)N2CCN(C(=O)Cc3cn(Cc4ccc(F)cc4)c4ccccc34)CC2)cc1 | 10 | 15 | 13 |  | 20 | 15 | 10 | 18 | 26.6 | 15
4 | Cc1ccc(S(=O)(=O)N2CCN(C(=O)Cc3c[nH]c4ccccc34)CC2)cc1 | 10 | 18 | 15 | 12 | 15 | 12 | 10 | 15 | > 120 | 13
5 | Cc1ccc(C(=O)N2CCN(C(=O)CCc3cn(Cc4ccc(F)cc4)c4ccccc34)CC2)cc1 | 10 | 17 | 15 |  | 20 | 18 | 13 | 18 | 51.7 | 15
6 | O=C(Cc1cn(Cc2ccc(F)cc2)c2ccccc12)N1CCN(S(=O)(=O)c2ccccc2)CC1 | 10 | 15 | 13 |  | 20 | 18 | 15 | 18 | 50.8 | 15
7 | Cc1ccc(S(=O)(=O)N2CCN(C(=O)CCc3cn(Cc4cn(Cc5ccc(F)cc5)nn4)c4ccccc34)CC2)cc1 | 9 | 20 | 20 | 15 | 20 | 15 | 12 | 15 | 20.8 | 13
8 | O=C(CCc1cn(Cc2ccc(F)cc2)c2ccccc12)N1CCN(S(=O)(=O)c2ccccc2)CC1 | 10 | 14 | 12 |  | 20 | 18 | 15 | 18 | 49.4 | 15
9 | O=C(CCc1cn(Cc2cn(Cc3ccc(F)cc3)nn2)c2ccccc12)N1CCN(S(=O)(=O)c2ccc(Cl)cc2)CC1 | 10 | 24 | 20 | 15 | 20 | 13 | 10 | 18 | 20.1 | 15

Reference: ChEMBL document CHEMBL5523679, “Discovery of 1,2,3-triazole incorporated indole-piperazines as potent antitubercular agents: Design, synthesis, in vitro biological evaluation, molecular docking and ADME studies” (Bioorg Med Chem, 2024)
